Measurements: patent US6645283B1, “Anthrapyridone compounds, water-based magenta ink composition, and method of ink-jet printing” (Nippon Kayaku Kabushiki Kaisha, priority 1998, dated 2003)

Legend:
Assay type in all cases: physicochemical
[1] = Solubility in water of the dyestuff
Method: (5) The wet cake obtained in above (4)was added in 1500 parts of methanol, followed by heating at 60-65° C. and stirring for 1 hr. The crystal was filtered to separate, washed with methanol and dried to obtain 42.0 parts of the compound of No.2 as a red crystal. λmax:523 nm (in water, the ammonium salt); solubility in water:100 g/l or above.
(2) The wet cake obtained in this (1) was desalted as in Example 1(5) to obtain 35.0 parts of the compound of No.5 as a red crystal. λmax:522 nm (in water, the ammonium salt); solubility in water:100 g/l or more.
(2) To the reaction solution of the above (1) was added 4.7 parts of the compound of Formula (5) (R1=CH3, R2=H) obtained as in Example 1 (1) and 1(2), followed by raising the temperature and dropping 10% aqueous sodium hydroxide at 60-65° C. to maintain the pH at 4-5 for 1 hr for the reaction. The solution was maintained for 1 hr at pH 6.5-7.0, and filtered to remove a little insoluble matter, to obtain the reaction solution containing the compound of No.15. The reaction solution was diluted with water to obtain 250 parts of the diluted solution, followed by heating at 60-65° C., adding 50 parts of sodium chloride and stirring for about 30 min to deposit crystal. After stirring for 1 hr, the crystal was filtered to separate, washed with 100 parts of 10% aqueous sodium chloride, and dried to obtain 8.9 parts of the sodium salt of the compound of No.15 as a red crystal. λmax:527 nm (in water); solubility in water:100 g/l or more.
The anthrapyridone dyestuff of the present invention is suitable for an ink-jet magenta dyestuff because it has values in hue and brightness close to those of the JNC standard magenta. The dyestuff of the present invention also, when used on a special paper, can provide good light fastness and water fastness. […] Further, the dyestuffs of No.2, No.5 and No.15 obtained in Example 1 to 3 have their water-solubilities of 100 g/l or more under an alkaline condition (pH 8-9) and therefore enable to prepare stable inks for ink-jetting. […]

[2] = Light fastness test of recorded image, carbon arc fade meter, 20 hours; details: carbon arc 20 hours; for Light fastness Grade: JIS L-0841 blue scale
Text: (§1) Each water-based ink composition was produced by preparing the liquids which contain the anthrapyridone compounds (dyestuff components) of No.2, No.5 and No.15 respectively and have a composition of Table 2 as shown below, and then filtering through 0.45 μm membrane filter.
(§2) By using an ink-jet printer (Trade name: PICTY80L, made by NEC KK), ink-jet recordings were done on four types of recording sheets: a plain paper (Printer paper A4, TLB5A4S made by Canon KK), a special paper A (Color BJ Paper LC101 made by Canon KK), a special paper B (Coated paper for color image jetting, STX73A4 made by Sharp KK), and a glossy film (Special glossy film, MJA4SP6 made by Seiko-Epson KK).
A carbon arc fade meter (by Suga Testing Machine Co.) was used to irradiate carbon arc on the recorded images for 20 hours. Grade was judged according to JIS L-0841 blue scale. A color difference (ΔE) between before and after the test was measured by the above color determination system.

[3] = Water fastness test of recorded paper, dipped into water, stirred for 2 min, air-dried; details: water 2 min; for Water fastness Grade: JIS color fading grey scale
Text: as §1, §2
A recorded paper was dipped into water in a beaker, stirred for 2 min, and air-dried. The change between before and after the test was judged by the JIS color fading grey scale. Alternatively, a color difference (ΔE) between before and after the test was measured by the above color determination system.

[4] = Plain Paper (PP), color difference before/after

solubility in water [1] | Light fastness (ΔE) ([2]; Glossy Film (GF)) | Light fastness Grade ([2]; Glossy Film (GF)) | Light fastness Grade ([2]; Plain Paper (PP)) | Light fastness (ΔE) [2, 4] | Light fastness (ΔE) ([2]; Special Paper A (SA)) | Light fastness Grade ([2]; Special Paper A (SA)) | Light fastness (ΔE) ([2]; Special Paper B (SB)) | Light fastness Grade ([2]; Special Paper B (SB)) | Water fastness (ΔE) ([3]; Glossy Film (GF)) | Water fastness Grade ([3]; Glossy Film (GF)) | Water fastness Grade ([3]; Plain Paper (PP)) | Water fastness (ΔE) [3, 4] | Water fastness (ΔE) ([3]; Special Paper A (SA)) | Water fastness Grade ([3]; Special Paper A (SA)) | Water fastness (ΔE) ([3]; Special Paper B (SB)) | Water fastness Grade ([3]; Special Paper B (SB)) | SMILES
≥ 100 mg/mL | (10.6) | 3-4 | 3-4 | (8.7) | (14.1) | 3 | (12.4) | 3 | (4.6) | 4 | 3-4 | (6.3) | (2.4) | 4 | (4.5) | 4 | Cn1c(=O)cc2c3c(c(Nc4cc(Nc5nc(NCC(=O)O)nc(Nc6cc(C(=O)O)cc(C(=O)O)c6)n5)ccc4S(=O)(=O)O)ccc31)C(=O)c1ccccc1-2 [No.5]
≥ 100 mg/mL | (2.8) | 4 | 3-4 | (8.0) | (21.3) | 2 | (8.9) | 3-4 | (3.8) | 4 | 1 | (58.6) | (1.3) | 4 | (19.3) | 2 | Cn1c(=O)cc2c3c(c(Nc4cc(Nc5nc(Cl)nc(Nc6cc7c(S(=O)(=O)O)cc(S(=O)(=O)O)cc7cc6S(=O)(=O)O)n5)ccc4S(=O)(=O)O)ccc31)C(=O)c1ccccc1-2 [No.15]
≥ 100 mg/mL | (3.6) | 4 | 4 | (3.7) | (11.1) | 3 | (7.2) | 3-4 | (3.5) | 4 | 3-4 | (8.6) | (2.2) | 4 | (5.5) | 3-4 | Cn1c(=O)cc2c3c(c(Nc4cc(Nc5nc(NCCS(=O)(=O)O)nc(Nc6cc(C(=O)O)cc(C(=O)O)c6)n5)ccc4S(=O)(=O)O)ccc31)C(=O)c1ccccc1-2 [No.2]
